Like-named read-outs stand apart in the source and are kept apart here.

The source of these data is article PMC6095626, “Screening of the Pathogen Box for inhibitors with dual efficacy against Giardia lamblia and Cryptosporidium parvum” (PLoS Neglected Tropical Diseases, 2018).

For series [1], the system named is C. parvum (UGA1 Nluc expressing strain in HCT-8 cells). Description: microbe, parasite or virus in culture. The class given is cell-based, Cryptosporidium parvum. The conditions noted are these: initial Pathogen Box screen, single concentration 10 µM, inhibition compared to DMSO wells. In short, it runs like this: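 Parasite growth quantified by NanoLuc luminescence from lysed infected HCT-8 cells, with EC50 fitted from dose curves. Compounds, single-dose 10 μM or serially diluted, were added to confluent 48 h monolayers before infection with bleached UGA1 Nluc oocysts.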

Series [2] has as its system HCT-8 host cells. Description: Toxicity to HCT-8 host cells seen in the C. parvum assay. The class given is cell-based. The note with it: no reliable C. parvum EC50 could be determined. As for the experimental part: Growth inhibition and EC50 determination assays were performed using UGA1 Nluc expressing C. parvum strain in HCT-8 cells (ATCC^©, Manassas, VA) as previously described. HCT-8 cells were inoculated onto 96-well plates and allowed to grow for 48 hours to 90–100% confluence and then treated with single concentration (10 μM) or serially diluted compounds prior to oocyst infection. C. parvum oocysts were incubated for 10 minutes in 10% bleach at room temperature and then washed with DPBS. One thousand oocysts per well were applied to the 96 well plates with RPMI-1640 medium supplemented with 10% horse serum and 1% penicillin/streptomycin at the same time as compound addition and incubated for 48 hours. The cell monolayers were lysed for 1 hour before adding Nano-Glo® luciferase reagent (Promega, Madison, WI), and measuring relative luminescence units (RLU) in an EnVision Plate Reader (Perkin Elmer, Waltham, MA). Several parameters, including reproducibility and reliability, were previously evaluated to optimize this assay for low and high-throughput (HTP) screening of small molecule compounds against C. parvum. EC50 values were calculated using Prism 7 software (GraphPad Software, San Diego, CA).

Series [3] relates to G. lamblia trophozoites (luciferase expressing, WBC6). Put plainly: microbe, parasite or virus in culture. The class given is cell-based, Giardia lamblia. In short, it runs like this:
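Incubation ran 24 h at 37 °C under anaerobic conditions, with compound added in equal volume to trophozoites (WBC6, luciferase-expressing, 250,000 cells/mL). Bioluminescence was the read-out, cross-checked by MOXI Z counts on a duplicate plate; metronidazole served as control (1:2 dilutions from 40 μM).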

Series [4] deals with HepG2 cells. The note with it: ref Pathogen_Box_Activity_Biological_Data_ Structure & Smiles (https://www.pathogenbox.org/about-pathogen-box/composition); read-out: HepG2 CC50 (literature values); cited from earlier work.
Series [5] deals with HepG2 cells. Put plainly: Cytotoxicity against HepG2 cells, AlamarBlue viability assay, 48 hours. The note with it: read-out: HepG2 CC50 (this study). The class given is cell-based, human. An excerpt:
Mammalian cell cytotoxicity assay data performed on HepG2 (human hepatocellular carcinoma) cells and described as CC20 or CC50 values are provided in supporting documentation that accompanied the Pathogen Box for approximately three quarters of the 400 compounds. However, no details of the assay conditions or parameters were provided. In this study, selected compounds were further tested for cytotoxicity against HepG2 cells as previously described. Briefly, cells were exposed to two-fold serial dilutions of compounds for 48 hours and cytotoxicity was assessed using the AlamarBlue® viability assay (Thermo Fisher Scientific, Waltham, MA). Each dilution was assayed in quadruplicate and concentrations causing 50% growth inhibition (CC50) were calculated by non-linear regression using GraphPad Prism 7 software (GraphPad Software, San Diego, CA).

For `O=C(Nc1ccc(C(F)(F)F)c(C(F)(F)F)c1)c1cc(Cl)ccc1O` [MMV687807], the “Crypto (10 uM) Mean % inhibition” value in series [1] worked out at 90%. Moreover, in series [2], the “Toxicity to HCT-8 host cells in the C. parvum assay” value is given as “too toxic to the HCT-8 host cells”. The “Giardia (16 uM) Mean % inhibition” value in series [3] (initial Pathogen Box screen, single concentration 16 µM, inhibition compared to DMSO wells) amounted to 97%. The EC50 in series [3] (luciferase expressing G. lamblia trophozoites, 24 hours, D-luciferin bioluminescence read-out, read-out: G. lamblia EC50) is 510 ± 60 nM. The CC50 is 700 nM in series [4] and below 5000 nM in series [5].
